One data set relates to HIV. Conditions: in vitro; cited from earlier work.

Usually melting point stands for the temperature of the solid-liquid transition.

As to `OCC1(n2nccn2)OCC1c1ccccc1` (stereo not drawn) [Example 2, 2-Hydroxymethyl-3-phenyl-2-(1,2,3-triazol-2-yl)oxetane], the melting point was in the range of 77 to 78.3 °C. The compound `OCC1(n2nc3ccccc3n2)OCC1c1ccccc1` (stereo not drawn) [Example 1, 2-(Benzotriazol-2-yl)-2-(hydroxymethyl)-3-phenyloxetane] showed a melting point of 119 to 123 °C. Turning to `Nc1ncnc2c1ncn2[C@@H]1O[C@H](CO)[C@H]1CO` [oxetanocin], in the data set on HIV, the anti-HIV activity entry is reported as “potent anti-HIV activity in vitro”.

Source of the values: patent US7687500B2, “Substituted oxetanes, method of making, and method of use thereof” (The University of Connecticut, priority 2004, dated 2010).
